Assay results: patent US20170246206A1, “Calcium Formate for Use as a Dietary Supplement” (Wisconsin Alumni Research Foundation, priority 1999, published 2017)
Where two headings read alike, the source gives them in different places.

Columns and labels:
[1] = remark: listed apart in the source
Source text: Twenty 15-day-old weanling rats from Holzmann Company were placed on a an adequate synthetic diet called “Diet 11” (Suda, T., et al., J. Nutr. 100:1049-1052, 1970). This diet is supplemented with vitamins A, D, E and K as described in that paper. Therefore, these are vitamin D-sufficient animals.
The animals were then placed on a basal diet that contains 0.02% calcium, i.e. an extremely low calcium diet. These animals served as controls. Another group were placed on the same diet containing calcium formate, providing calcium at 0.25% of the diet. Another group was supplied calcium formate at 0.47% calcium in the diet, and another group was provided 0.47% calcium in the form of calcium carbonate. Growth of the animals reflects the ability of the animals to utilize calcium. […] 57:449-468 (1955).

[2] = 1% Ca formate in diet, 1 week on diet
[3] = 1% Ca formate in diet, 2 weeks on diet
[4] = 2% Ca formate in diet, 1 week on diet
[5] = 2% Ca formate in diet, 2 weeks on diet
[6] = 3% Ca formate in diet, 1 week on diet
[7] = 3% Ca formate in diet, 2 weeks on diet

O=C[O-].O=C[O-].[Ca+2] [Calcium Formate, calcium formate]
Serum (mean ± SEM) [2]: 3.25 ± .31 mg %
Weight [2]: 229 ± 5.5
Serum Ca (mean ± SEM) [3]: 14.0 ± .51 mg %
Weight [3]: 211 ± 3.8
Serum (mean ± SEM) [4]: 2.50 ± .32 mg %
Weight [4]: 211 ± 6.3
Serum (mean ± SEM) [5]: 2.7 ± .24 mg %
Serum Ca (mean ± SEM) [5]: 12.8 ± .94 mg %
Weight [5]: 198 ± 5.2
Difference in serum phosphorus between dose levels (2% vs 3% calcium formate in diet): little difference in serum phosphorus
Serum (mean ± SEM) [6]: 2.5 ± .20 mg %
Weight [6]: 194 ± 6.5
Serum (mean ± SEM) [7]: 2.9 ± 0.8 mg %
Serum Ca (mean ± SEM) [7]: 12.9 ± 1.3 mg %
Weight [7]: 150 ± 8.0
Serum phosphorus compared with control rats (all rats supplied with calcium formate (1-3% of diet)): less serum phosphorus than control rats
Average Body Weight ± S.E.M for 5 Rats ([1]; 0.25% Ca in diet, day 7): 54.3 ± 4.0 Grams
Average Body Weight ± S.E.M for 5 Rats ([1]; 0.25% Ca in diet, day 14): 84.6 ± 5.5 Grams
Average Body Weight ± S.E.M for 5 Rats ([1]; 0.25% Ca in diet, day 21): 131.0 ± 5.7 Grams
Growth in comparison to other treatment groups ([1]; 0.25% calcium as the formate): slightly better growth
Average Body Weight ± S.E.M for 5 Rats ([1]; 0.47% Ca in diet, day 7): 51.0 ± 10.6 Grams
Average Body Weight ± S.E.M for 5 Rats ([1]; 0.47% Ca in diet, day 14): 78.0 ± 19^ Grams
Average Body Weight ± S.E.M for 5 Rats ([1]; 0.47% Ca in diet, day 21): 127 ± 11 Grams
Ability to supply calcium to experimental rats ([1]; compared with calcium carbonate): at least equal to calcium carbonate

O=C([O-])[O-].[Ca+2] [Calcium Carbonate, calcium carbonate, reference compound]
Average Body Weight ± S.E.M for 5 Rats ([1]; 0.47% Ca in diet, day 7): 48.6 ± 4.9 Grams
Average Body Weight ± S.E.M for 5 Rats ([1]; 0.47% Ca in diet, day 14): 80.4 ± 10.4 Grams
Average Body Weight ± S.E.M for 5 Rats ([1]; 0.47% Ca in diet, day 21): 126.2 ± 11 Grams
